Measurements as given in patent US10335409B2 (priority 2012, dated 2019).

Assays:
Assay type in all cases: cell-based, hepatitis C virus
[1] = tested on: genotype 3a (S52) stable HCV replicon in Huh-7-derived cells; assay: Stable subgenomic HCV replicon EC50, genotype 3a (Renilla luciferase); conditions: Hepatitis C virus, 72 h, read-out: EC50 3A RLUC
Description: (§1) Antiviral potency (EC50) was determined in both stable subgenomic HCV replicon cell lines and transient-transfected HCV replicon cells. The term half maximal effective concentration (EC50) refers to the concentration of a drug which induces a response halfway between the baseline and maximum after the exposure time specified below.
(§2) Stable subgenomic HCV replicons for genotype 1a, 1b, 2a, 3a, and 4a were established in Huh-7-derived cells as described by Lohmann et al (Lohmann V, Korner F, Koch J, et al Replication of subgenomic hepatitis C virus RNAs in a hepatoma cell line. Science 1999; 285:119-3) Each stable cell line contains a bicistronic HCV replicon that encodes a humanized Renilla luciferase (hRLuc) reporter gene fused to a selectable neomycin-resistance gene, followed by an EMCV IRES and the NS3-NS5B coding region of HCV. […] Luciferase activity was measured as a marker for intracellular HCV replication levels.
(§3) The genotype 1a stable replicon was derived from the H77 HCV strain and contained adaptive mutations P1496L and S2204I. The genotype 1b stable replicon was derived from the Con1 HCV strain and contained adaptive mutations E1202G, T1280I and K1846T. […] The genotype 3a stable replicon was derived from the S52 HCV strain and contained adaptive mutations P1121L, A1198T and S2210I (equivalent to S2204I in genotype 1). The genotype 4a stable replicon was derived from the ED43 HCV strain and contained adaptive mutations Q1691R and S2204I. All replicon cell lines were propagated in Huh-7-derived cells and maintained in Dulbecco's modified Eagle's Medium (DMEM) supplemented with 10% fetal bovine serum (FBS) and 0.5 mg/mL G418.
(§4) To perform EC50 assays, cells from each HCV replicon were dispensed into 384-well plates. Compounds were dissolved in DMSO at a concentration of 10 mM and diluted in DMSO using an automated pipetting instrument. Three-fold serially diluted compounds were directly added to the cells using an automated instrument. […] Seventy-two hours later, cells were lysed and Renilla luciferase activity were quantified as recommended by the manufacturer (Promega-Madison, Wis.). Non-linear regression was performed to calculate EC50 values.

[2] = tested on: genotype 1a (H77) stable HCV replicon in Huh-7-derived cells; assay: Stable subgenomic HCV replicon EC50, genotype 1a (Renilla luciferase); conditions: Hepatitis C virus, stable replicon genotype 1a, 72 h, read-out: EC50 1A RLUC
Description: as §1, §2, §3, §4

[3] = tested on: genotype 1b (Con1) wild type transient HCV replicon in Huh-7-derived cells; assay: Transient-transfected HCV replicon EC50, genotype 1b wild type; conditions: Hepatitis C virus, 72 h, transient-transfected replicon genotype 1b wild type, read-out: EC50 1B WT
[4] = tested on: genotype 1b (Con1) stable HCV replicon in Huh-7-derived cells; assay: Stable subgenomic HCV replicon EC50, genotype 1b (Renilla luciferase); conditions: Hepatitis C virus, stable replicon genotype 1b, 72 h, read-out: EC50 1B RLUC
Description: as §1, §2, §3, §4

[5] = tested on: genotype 1a NS3/4a protease inhibitor resistant variant R155K transient HCV replicon in Huh-7-derived cells; assay: Transient-transfected HCV replicon EC50, genotype 1a R155K; conditions: Hepatitis C virus, 72 h, read-out: EC50 1A R155K, transient-transfected replicon genotype 1a R155K resistant variant, 72 h
[6] = tested on: genotype 2a (JFH-1) stable HCV replicon in Huh-7-derived cells; assay: Stable subgenomic HCV replicon EC50, genotype 2a (Renilla luciferase); conditions: Hepatitis C virus, stable replicon genotype 2a, 72 h, read-out: EC50 2A RLUC
Description: as §1, §2, §3, §4

[7] = tested on: genotype 1b NS3/4a protease inhibitor resistant variant D168A transient HCV replicon in Huh-7-derived cells; assay: Transient-transfected HCV replicon EC50, genotype 1b D168A; conditions: Hepatitis C virus, 72 h, read-out: EC50 1B D168A, transient-transfected replicon genotype 1b D168A resistant variant, 72 h
[8] = tested on: genotype 4a (ED43) stable HCV replicon in Huh-7-derived cells; assay: Stable subgenomic HCV replicon EC50, genotype 4a (Renilla luciferase); conditions: Hepatitis C virus, 72 h, read-out: EC50 4A RLUC
Description: as §1, §2, §3, §4

[9] = tested on: genotype 1a (H77) wild type transient HCV replicon in Huh-7-derived cells; assay: Transient-transfected HCV replicon EC50, genotype 1a wild type; conditions: Hepatitis C virus, 72 h, transient-transfected replicon genotype 1a wild type, read-out: EC50 1A WT
[10] = tested on: genotype 3a (S52) wild type transient HCV replicon in Huh-7-derived cells; assay: Transient-transfected HCV replicon EC50, genotype 3a wild type; conditions: Hepatitis C virus; transient-transfected replicon genotype 3a wild type, 72 h; read-out: EC50 3A WT

COc1ccc2nc3c(nc2c1)O[C@H]1CN(C(=O)[C@H](C(C)(C)C)NC(=O)O[C@@H]2C[C@H]2CCCCC3)[C@H](C(=O)N[C@]2(C(=O)NS(=O)(=O)C3CC3)C[C@H]2CCF)[C@@H]1C [Example 22, (1aR,5S,8S,9S,10R,22aR)-5-tert-butyl-N-[(1R,25)-1-[(cyclopropylsulfonyl)carbamoyl]-2-(2-fluoroethyl)cyclopropyl]-14-methoxy-9-methyl-3,6-dioxo-1,1a,3,4,5,6,9,10,18,19,20,21,22,22a-tetradecahydro-8H-7,10-methanocyclopropa[18,19][1,10,3,6]dioxadiazacyclononadecino[11,12-b]quinoxaline-8-carboxamide] gave an EC50 [1] of 727 nM, an EC50 [2] of 15 nM and an EC50 [3] of 2.6 nM. The EC50 [4] was 7.5 nM, the EC50 [5] was 48 nM and the EC50 [6] was 27 nM. The EC50 [7] was 242 nM, the EC50 [8] was 11 nM and the EC50 [9] was 8.6 nM.

Compound COc1ccc2nc3c(nc2c1)O[C@H]1CN(C(=O)[C@H](C(C)(C)C)NC(=O)O[C@@H]2C[C@H]2CCCCC3)[C@H](C(=O)N[C@]2(C(=O)NS(=O)(=O)C3(C)CC3)C[C@H]2CCF)[C@@H]1C [Example 23, (1aR,5S,8S,9S,10R,22aR)-5-tert-butyl-N-[(1R,2S)-2-(2-fluoroethyl)-1-{[(1-methylcyclopropyl)sulfonyl]carbamoyl}cyclopropyl]-14-methoxy-9-methyl-3,6-dioxo-1,1a,3,4,5,6,9,10,18,19,20,21,22,22a-tetradecahydro-8H-7,10-methanocyclopropa[18,19][1,10,3,6]dioxadiazacyclononadecino[11,12-b]quinoxaline-8-carboxamide] has an EC50 [1] of 587 nM, an EC50 [2] of 13 nM and an EC50 [3] of 3.6 nM. It also gave an EC50 [4] of 7.5 nM, an EC50 [5] of 36 nM and an EC50 [6] of 23 nM. The EC50 [7] was 173 nM, the EC50 [8] was 9.9 nM and the EC50 [9] was 9.5 nM.

With COc1ccc2nc3c(nc2c1)O[C@H]1CN(C(=O)[C@H](C(C)(C)C)NC(=O)O[C@@H]2C[C@H]2CCCCC3)[C@H](C(=O)N[C@]2(C(=O)NS(=O)(=O)C3CC3)C[C@H]2CC(F)F)[C@@H]1C [Example 24, (1aR,5S,8S,9S,10R,22aR)-5-tert-butyl-N-[(1R,2S)-1-[(cyclopropylsulfonoyl)carbamoyl]-2-(2,2-difluoroethyl)cyclopropyl]-14-methoxy-9-methyl-3,6-dioxo-1,1a,3,4,5,6,9,10,18,19,20,21,22,22a-tetradecahydro-8H-7,10-methanocyclopropa[18,19][1,10,3,6]dioxadiazacyclononadecino[11,12-b]quinoxaline-8-carboxamide] the EC50 [1] was 663 nM, the EC50 [2] was 12 nM and the EC50 [3] was 3.2 nM. For the same compound, the EC50 [4] was 7.5 nM, the EC50 [5] was 49 nM and the EC50 [6] was 20 nM. It also gave an EC50 [7] of 284 nM, an EC50 [8] of 9.2 nM and an EC50 [9] of 9.3 nM.

COc1ccc2nc3c(nc2c1)O[C@H]1CN(C(=O)[C@H](C(C)(C)C)NC(=O)O[C@@H]2C[C@H]2CCCCC3)[C@H](C(=O)N[C@]2(C(=O)NS(=O)(=O)C3(C)CC3)C[C@H]2CC(F)F)[C@@H]1C [Example 25, (1aR,5S,8S,9S,10R,22aR)-5-tert-butyl-N-[(1R,2S)-2-(2,2-difluoroethyl)-1-{[(1-methylcyclopropyl)sulfonyl]carbamoyl}cyclopropyl]-14-methoxy-9-methyl-3,6-dioxo-1,1a,3,4,5,6,9,10,18,19,20,21,22,22a-tetradecahydro-8H-7,10-methanocyclopropa[18,19][1,10,3,6]dioxadiazacyclononadecino[11,12-b]quinoxaline-8-carboxamide] showed an EC50 [1] of 409 nM, an EC50 [2] of 8.8 nM and an EC50 [3] of 3.6 nM. It also gave an EC50 [4] of 6.3 nM, an EC50 [5] of 17 nM and an EC50 [6] of 13 nM. For the same compound, the EC50 [7] was 116 nM, the EC50 [8] was 7.1 nM and the EC50 [9] was 4.4 nM.

With COc1ccc2nc3c(nc2c1)O[C@H]1CN(C(=O)[C@H](C(C)(C)C)NC(=O)O[C@@H]2CCC[C@H]2CCCCC3)[C@H](C(=O)N[C@]2(C(=O)NS(=O)(=O)C3CC3)C[C@H]2C(F)F)[C@@H]1C [Example 28, (3aR,7S,10S,11S,12R,24aR)-7-tert-butyl-N-[(1R,2R)-1-[(cyclopropylsulfonyl)carbamoyl]-2-(difluoromethyl)cyclopropyl]-16-methoxy-11-methyl-5,8-dioxo-1,2,3,3a,5,6,7,8,11,12,20,21,22,23,24,24a-hexadecahydro-10H-9,12-methanocyclopenta[18,19][1,10,3,6]dioxadiazacyclononadecino[11,12-b]quinoxaline-10-carboxamide] the EC50 [1] was 266 nM, the EC50 [2] was 6.7 nM and the EC50 [3] was 3.4 nM. It also gave an EC50 [4] of 4.6 nM, an EC50 [5] of 9 nM and an EC50 [6] of 6.2 nM. The EC50 [7] was 54 nM, the EC50 [8] was 4.1 nM and the EC50 [9] was 3 nM.

COc1ccc2nc3c(nc2c1)O[C@H]1CN(C(=O)[C@H](C(C)(C)C)NC(=O)O[C@@]2(C)C[C@@H]2CCCCC3)[C@H](C(=O)N[C@]2(C(=O)NS(=O)(=O)C3(C)CC3)C[C@H]2C(F)F)[C@@H]1C [Example 45, (1aS,5S,8S,9S,10R,22aS)-5-tert-butyl-N-[(1R,2R)-2-(difluoromethyl)-1-{[(1-methylcyclopropyl)sulfonyl]carbamoyl}cyclopropyl]-14-methoxy-1a,9-dimethyl-3,6-dioxo-1,1a,3,4,5,6,9,10,18,19,20,21,22,22a-tetradecahydro-8H-7,10-methanocyclopropa[18,19][1,10,3,6]dioxadiazacyclononadecino[11,12-b]quinoxaline-8-carboxamide] was tested, and the EC50 [1] was 549 nM, the EC50 [2] was 21 nM and the EC50 [3] was 5.3 nM. It also gave an EC50 [4] of 8.3 nM, an EC50 [5] of 35 nM and an EC50 [6] of 24 nM. For the same compound, the EC50 [7] was 88 nM, the EC50 [8] was 13 nM and the EC50 [9] was 13 nM.

Compound CC[C@@H]1[C@@H]2CN(C(=O)[C@H](C(C)(C)C)NC(=O)O[C@@H]3C[C@H]3CCCCC(F)c3nc4ccc(OC)cc4nc3O2)[C@@H]1C(=O)N[C@]1(C(=O)NS(=O)(=O)C2(C)CC2)C[C@H]1C(F)F (stereo partly drawn) [Example 90, (1aR,5S,8S,9S,10R,22aR)-5-tert-butyl-N-[(1R,2R)-2-(difluoromethyl)-1-{[(1-methylcyclopropyl)sulfonyl]carbamoyl}cyclopropyl]-9-ethyl-18-fluoro-14-methoxy-3,6-dioxo-1,1a,3,4,5,6,9,10,18,19,20,21,22,22a-tetradecahydro-8H-7,10-methanocyclopropa[18,19][1,10,3,6]dioxadiazacyclononadecino[11,12-b]quinoxaline-8-carboxamide] has an EC50 [1] of 114 nM, an EC50 [2] of 12 nM and an EC50 [4] of 9.6 nM. The EC50 [6] was 8.8 nM, the EC50 [10] was 43 nM and the EC50 [8] was 10.4 nM.
